One may read the Kd as a measure of binding affinity in units of concentration.

The values below come from BindingDB's records for doi:10.1021/cb500820b (University of Massachusetts Medical School, 2015).

This assay concerns the target C-terminal-binding protein 2 (Homo sapiens, UniProt P56545). As to the kind of experiment: CtBP2 ITC. As to conditions: pH 8.5. An excerpt:
Five mM MTOB was utilized for competitive displacement assays.

In turn, `CSCCC(=O)C(=O)O` [4-Methylthio 2-oxobutyric acid (MTOB)] returned a Kd of 2960 µM.
